The test system of assay [1] is human fetal articular chondrocytes. Description: Cellular metabolism (Seahorse), human fetal articular chondrocytes. The class given is cell-based. On the procedure:
The mitochondrial assay cellular oxygen consumption and mitochondrial function was carried out to measure basal respiration using XF24 instrument (Seahorse Biosciences) according to manufacturer instructions. Tested cells (100,000 cells per well) we plated into 24-well test plates 48 hours prior to experimentation. Oxygen consumption rates and extracellular acidification rates were measured every 10 minutes for up to 60 minutes (Rate 1-6).

The test system of assay [2] is fetal articular cartilage explants. The assay is described as follows: Apoptosis / survival in fetal articular cartilage explants (TUNEL, flow cytometry). The class given is cell-based, human. As to conditions: for fetal chondrocyte survival: Annexin V-FITC cell sorting; for apoptotic cells: fetal cartilage explants, inhibitor 24 hours. The procedure: (§1) FIGS. 26A-26J. LIF/STAT3/MYC signaling is prominent in fetal articular chondrocytes and can activate a fetal-like phenotype in adult cells. (FIG. 26A) Levels of phospho-STAT3 (pSTAT3) and MYC protein were quantitated in human fetal and adult articular chondrocytes relative to histone H3. (FIG. 26B) Effects of soluble LIF receptor (sLIFR) on MYC and pSTAT3 protein levels on fetal articular chondrocytes after 72 hours. (FIG. 26C) Detection of apoptotic cells using TUNEL staining and flow cytometry analysis of fetal articular cartilage explants cultured in the absence (control) or presence of a MYC (10058-F4) or STAT3 (STATTIC) inhibitor for 24 hours. (FIG. 26D) Quantification of proliferating cells via EdU incorporation in fetal articular cartilage explants and also by flow cytometry analysis for BrdU. Scale bars represent 100 μm. (FIG. 26E) Assessment of metabolic activity of human fetal articular chondrocytes cultured in the presence or absence of MYC or STAT3 inhibitors. (FIG. 26F) Migration capacity of fetal articular chondrocytes was assessed using a Transwell® assay in the absence or presence of MYC and STAT3 inhibitors. (FIG. 26G) Protein levels of MYC and pSTAT3 were measured in adult human articular chondrocytes with and without incubation with LIF. Data are shown normalized to histone H3. (FIG. 26H) Migratory capacity of adult human articular chondrocytes in a Transwell® assay measured in the presence or absence of LIF. (FIG. 26I) Single adult human articular chondrocytes were cultured with or without LIF for 5 weeks to allow detection of colony-forming cells. (FIG. 26J) Explants of adult pig articular cartilage were incubated with EdU in the presence or absence of LIF to detect proliferating cells. Scale bars represent 25 μm.
To assess the functional consequences of LIF signaling, explants of fetal cartilage were cultured with inhibitors of MYC or STAT3 (Schust et al., 2006) and then TUNEL stained; flow cytometry was used to quantitate the results of parallel experiments. […] MYC activity has been documented previously in cancer cell lines to regulate mitochondrial function (Fan et al., 2010). […]
TdT-mediated dUTP nick-end labeling (TUNEL) or EdU assays were performed by using in situ cell death detection kit (TUNEL, Roche Diagnostics GmbH, Germany) or Click-iT® Assay Kit obtained from Invitrogen (Carlsbad, Calif.), respectively, as described in the manufacturer's protocol. […] After staining sections were analyzed using fluorescent microscopy. Apoptosis was evaluated by flow cytometry with a Fortessa (BD Biosciences, San Jose, Calif.) cytometer using the Annexin V-FITC (Miltenyi Biotec, San Diego, Calif.) antibody. […]
On the technique in general: A flow cytometer gives signals particle by particle.

The next assay deals with fetal cartilage explants. The assay is described as follows: Proliferation (BrdU, EdU) in fetal cartilage explants. The assay is classed as cell-based, human. The procedure: as §1, with “Data are shown normalized to histone H3.” left out, “(FIG. 26I) Single adult human articular chondrocytes were cultured with or without LIF for 5 weeks to allow detection of colony-forming cells. (FIG. 26J) Explants of adult pig articular cartilage were incubated with EdU in the presence or absence of LIF to detect proliferating cells. Scale bars represent 25 μm.” left out

Assay [3] relates to fetal BMPR1B+ chondrocytes. The assay is described as follows: Clonogenic potential of fetal chondrocytes. The assay is classed as cell-based, human. The source says: FIGS. 12A-12D. […] Cell sorting results for control (FIG. 12A), p-STAT3 inhibitor (FIG. 12B) and c-MYC inhibitor (FIG. 12C). y-axis: FSC (forward scatter). x-axis: increasing concentration of Annexin V-FITC. (FIG. 12D) Histogram depicting % clonogenic cells (fetal BMPR1B+ chondrocytes) under: control, p-STAT3 and c-MYC inhibitor conditons.
To test the ability of LIF to stimulate LIFR^+ cells and cause their activation in situ, we exposed human adult articular cartilage cells to high doses of LIF for 72 hours (FIG. 5A).
For clonal assays cartilage cells were sorted by FACS and deposited into 96-well culture plates at 1 cell/well in DMEM/F12 culture medium supplemented with 1% FCS with or without LIF or RCGD 423. After 4 weeks clones (colonies with 50 cells or more) were counted using light microscopy in at least 300 wells for each culture condition.

In another assay the test system is BMPR1B+ chondrocytes. Description: Retention of BMPR1B+ chondrocytes in culture (flow cytometry). The assay is classed as cell-based, pig. The procedure:
FIG. 35. RCGD 423 Preserves BMPR1B+ Chondrocytes in Culture. Adult pig chondrocytes were cultured in the presence of various cytokines or RCGD 423 and the number of cells expressing BMPR1B were quantitated using flow cytometry. Know mitogens for cartilage, including PDGF-BB and FGF2, promoted dramatic loss of BMPR1B^+ cells. In contrast, RCGD 423 and LIF acted to maintain cells with the BMPR1B+ phenotype.
BMPR1B+LIFR+ human adult articular chondrocytes were sorted using FACS and deposited in 96-well culture plates at density 10,000 cells per well in DMEM/F12 culture medium (Invitrogen) supplemented with 1% FBS. Growth factors or RCGD 423 were added at the time of plating. After 1, 3 and 7 days cultures were re-analyzed with FACS using an antibody against BMPR1B.

Like-named read-outs stand apart in the source and are kept apart here.

Consider `O=[N+]([O-])c1ccc2c(c1)S(=O)(=O)C=C2` [STATTIC], for which, in assay [1], the glycolysis result is “unaffected”. Also, in assay [2], the fetal chondrocyte survival entry is “markedly reduced” and the apoptotic cells entry is on record as “strongly significant increases”. The “incorporation of BrdU and EdU” value in the assay with fetal cartilage explants is given as “greatly reduced”. The “clonogenic / clonal potential of fetal chondrocytes” value (from here on “clonogenic / clonal potential”) in assay [3] is recorded as “dramatically reduced”. Further, the “clonogenic / clonal potential” value in assay [3] (listed as p-STAT3 inhibitor) is listed as “markedly reduced”.
Take FGF2: known mitogen for cartilage: the “BMPR1B+ chondrocytes in culture” value in the assay with BMPR1B+ chondrocytes was “dramatic loss”.
As to `CCc1ccc(/C=C2/SC(=S)NC2=O)cc1` [10058-F4], in assay [1], the glycolysis result is listed as “unaffected”. Moreover, in assay [2], the fetal chondrocyte survival entry was “markedly reduced” and the apoptotic cells result is “strongly significant increases”. Further, the “incorporation of BrdU and EdU” value with fetal cartilage explants was “greatly reduced”. Further, the “clonogenic / clonal potential” value in assay [3] is listed as “markedly reduced”.

Source of the values: patent US11072592B2, “Small molecules that enable cartilage rejuvenation” (The Regents of the University of California, priority 2015, dated 2021).
